ChEMBL document CHEMBL1201862, “PubChem BioAssay data set” (2004)
Active and inactive are the calls of the source. Cut-off read from the data, not from the text of the source, for most assays here: actives have a measured IC50 and inactives only a lower limit.

Assays:
[1] = molecular target: T1, Hexokinase-1 (Homo sapiens, UniProt P19367); experiment: HK1 enzyme activation by HKDC1 hits – biochemical, selectivity assay for HKDC1 activator project, dose response (AID 504762); type: functional
T1 sequence (P19367 whole entry): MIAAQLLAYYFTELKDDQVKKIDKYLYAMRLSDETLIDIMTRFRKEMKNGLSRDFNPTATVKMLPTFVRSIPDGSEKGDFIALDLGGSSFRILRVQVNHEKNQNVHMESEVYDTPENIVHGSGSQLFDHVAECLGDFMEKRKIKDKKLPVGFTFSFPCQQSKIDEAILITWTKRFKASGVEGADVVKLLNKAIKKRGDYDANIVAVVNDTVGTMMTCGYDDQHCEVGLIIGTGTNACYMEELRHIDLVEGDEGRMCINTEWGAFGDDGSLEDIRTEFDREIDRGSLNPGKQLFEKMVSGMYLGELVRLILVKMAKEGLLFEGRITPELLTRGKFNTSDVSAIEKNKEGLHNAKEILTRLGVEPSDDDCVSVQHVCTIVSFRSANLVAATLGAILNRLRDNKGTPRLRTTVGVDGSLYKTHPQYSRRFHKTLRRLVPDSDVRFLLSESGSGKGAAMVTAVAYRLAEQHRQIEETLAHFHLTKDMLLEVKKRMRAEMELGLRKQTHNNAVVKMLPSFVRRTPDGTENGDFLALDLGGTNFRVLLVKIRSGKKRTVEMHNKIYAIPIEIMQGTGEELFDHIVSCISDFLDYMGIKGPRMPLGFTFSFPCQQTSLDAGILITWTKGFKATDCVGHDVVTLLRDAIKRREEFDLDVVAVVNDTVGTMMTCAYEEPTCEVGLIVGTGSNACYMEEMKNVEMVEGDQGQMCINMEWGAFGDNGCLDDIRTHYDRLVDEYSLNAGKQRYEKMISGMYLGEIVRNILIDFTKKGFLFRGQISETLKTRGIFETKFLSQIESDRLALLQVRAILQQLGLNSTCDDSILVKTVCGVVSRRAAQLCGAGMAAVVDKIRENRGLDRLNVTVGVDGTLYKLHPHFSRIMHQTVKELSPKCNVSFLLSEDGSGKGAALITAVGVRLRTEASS

[2] = molecular target: T2, Hexokinase HKDC1 (Homo sapiens, UniProt Q2TB90); experiment: activation of HKDC1 glucose phosphorylation – biochemical, W721R variant, dose response (AID 504730); type: functional
T2 sequence (Q2TB90 whole entry): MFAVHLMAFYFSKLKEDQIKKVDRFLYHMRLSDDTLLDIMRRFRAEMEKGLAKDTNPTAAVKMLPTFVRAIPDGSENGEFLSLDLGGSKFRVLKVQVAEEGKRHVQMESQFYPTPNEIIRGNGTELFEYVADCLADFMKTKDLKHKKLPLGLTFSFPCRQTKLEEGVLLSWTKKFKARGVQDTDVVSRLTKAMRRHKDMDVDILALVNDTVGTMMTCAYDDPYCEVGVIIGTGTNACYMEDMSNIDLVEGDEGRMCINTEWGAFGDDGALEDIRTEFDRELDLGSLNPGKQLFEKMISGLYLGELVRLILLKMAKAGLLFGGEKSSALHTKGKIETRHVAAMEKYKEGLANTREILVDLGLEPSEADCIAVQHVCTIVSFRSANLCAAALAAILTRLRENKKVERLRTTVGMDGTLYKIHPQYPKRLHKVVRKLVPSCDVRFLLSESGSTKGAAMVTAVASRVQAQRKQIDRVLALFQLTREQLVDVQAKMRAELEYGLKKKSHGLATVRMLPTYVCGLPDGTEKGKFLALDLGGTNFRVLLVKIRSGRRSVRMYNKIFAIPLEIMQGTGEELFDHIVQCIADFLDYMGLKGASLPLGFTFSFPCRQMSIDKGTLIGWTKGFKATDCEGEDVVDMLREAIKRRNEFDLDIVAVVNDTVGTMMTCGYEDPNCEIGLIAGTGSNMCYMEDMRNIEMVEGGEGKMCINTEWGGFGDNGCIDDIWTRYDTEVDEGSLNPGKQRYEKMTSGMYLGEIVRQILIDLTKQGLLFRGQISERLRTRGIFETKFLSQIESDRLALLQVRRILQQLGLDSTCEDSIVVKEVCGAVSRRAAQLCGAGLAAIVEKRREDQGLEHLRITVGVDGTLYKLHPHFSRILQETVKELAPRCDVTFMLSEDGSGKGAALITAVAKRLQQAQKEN

[3] = molecular target: T3, Type-1 angiotensin II receptor (Homo sapiens, UniProt P30556); experiment: agonist activity at AGTR1 – cell-based, uHTS hits, selectivity assay for APJ receptor agonist project, dose response (AID 488865); type: functional;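 note: beta-arrestin recruitment to AT1 measured by enzyme fragment complementation luminescence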
T3 sequence (P30556 whole entry): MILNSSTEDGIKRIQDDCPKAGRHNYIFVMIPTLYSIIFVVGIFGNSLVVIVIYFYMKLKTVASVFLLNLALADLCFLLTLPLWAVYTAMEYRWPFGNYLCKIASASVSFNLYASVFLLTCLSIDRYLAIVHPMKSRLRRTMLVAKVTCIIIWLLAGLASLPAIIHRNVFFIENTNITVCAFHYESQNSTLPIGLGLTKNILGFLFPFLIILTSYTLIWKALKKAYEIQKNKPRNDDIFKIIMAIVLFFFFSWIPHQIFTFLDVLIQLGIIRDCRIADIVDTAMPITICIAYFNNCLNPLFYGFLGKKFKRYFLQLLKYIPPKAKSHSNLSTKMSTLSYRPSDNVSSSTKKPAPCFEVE

[4] = molecular target: Alkaline phosphatase, placental type (Homo sapiens, UniProt P05187); experiment: human placental alkaline phosphatase inhibition – biochemical, luminescence, confirmation (AID 1512); type: functional
Chain of Alkaline phosphatase, placental type (P05187 whole entry): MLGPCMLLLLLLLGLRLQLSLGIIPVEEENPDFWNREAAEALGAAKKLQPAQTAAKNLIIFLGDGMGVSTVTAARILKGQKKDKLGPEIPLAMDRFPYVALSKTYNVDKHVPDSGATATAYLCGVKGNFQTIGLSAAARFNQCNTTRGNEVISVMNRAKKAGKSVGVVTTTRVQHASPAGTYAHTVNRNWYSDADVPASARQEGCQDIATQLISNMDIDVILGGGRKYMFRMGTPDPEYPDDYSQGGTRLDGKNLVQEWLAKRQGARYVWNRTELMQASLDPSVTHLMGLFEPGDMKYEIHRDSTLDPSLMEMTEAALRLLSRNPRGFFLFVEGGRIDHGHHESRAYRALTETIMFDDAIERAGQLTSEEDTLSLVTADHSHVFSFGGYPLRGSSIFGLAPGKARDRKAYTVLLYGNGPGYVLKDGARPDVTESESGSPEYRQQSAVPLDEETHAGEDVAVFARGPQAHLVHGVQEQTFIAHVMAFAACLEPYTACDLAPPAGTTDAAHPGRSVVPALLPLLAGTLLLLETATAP

[5] = molecular target: T4, Alkaline phosphatase, tissue-nonspecific isozyme (Homo sapiens, UniProt P05186); experiment: potency against alkaline phosphatase TNAP – biochemical, luminescent, dose response, SAR follow-up (AID 1056)
T4 sequence (P05186 whole entry): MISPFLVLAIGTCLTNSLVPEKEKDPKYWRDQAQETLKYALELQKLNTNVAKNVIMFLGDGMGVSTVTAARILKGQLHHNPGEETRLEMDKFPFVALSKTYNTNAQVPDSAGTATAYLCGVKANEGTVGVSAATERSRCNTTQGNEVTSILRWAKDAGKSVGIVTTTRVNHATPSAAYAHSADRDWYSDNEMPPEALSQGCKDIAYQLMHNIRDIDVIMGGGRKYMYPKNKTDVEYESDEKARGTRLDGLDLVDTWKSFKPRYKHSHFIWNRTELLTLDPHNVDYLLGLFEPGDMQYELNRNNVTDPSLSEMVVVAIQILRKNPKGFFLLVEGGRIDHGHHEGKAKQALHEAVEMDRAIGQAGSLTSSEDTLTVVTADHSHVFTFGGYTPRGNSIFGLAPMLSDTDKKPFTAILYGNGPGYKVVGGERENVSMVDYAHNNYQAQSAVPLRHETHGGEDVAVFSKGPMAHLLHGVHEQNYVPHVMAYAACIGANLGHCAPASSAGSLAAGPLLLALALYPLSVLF

[6] = molecular target: Troponin, cardiac muscle (Homo sapiens, UniProt P19429+P45379+P63316); experiment: Fluorescence-based biochemical high throughput dose response assay for activators of the calcium sensitivity of cardiac Regulated Thin Filaments (RTF). [Related pubchem assays (depositor defined):AID493008, AID493018, AID504382, AID504383]; type: protein-complex assay
[7] = molecular target: T5, Endoribonuclease toxin MazF (Escherichia coli K-12, UniProt P0AE70); experiment: substrate-only fluorescence increase artefacts – biochemical, single-stranded RNase substrate, counter-screen for MazEF activator project, dose response (AID 588502); type: functional
T5 sequence (P0AE70 whole entry): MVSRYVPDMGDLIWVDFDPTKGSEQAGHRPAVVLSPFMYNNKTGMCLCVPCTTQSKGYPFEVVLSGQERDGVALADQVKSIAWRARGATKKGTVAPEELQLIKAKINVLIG

[8] = molecular target: T5, Endoribonuclease toxin MazF; experiment: activation of MazEF endoribonuclease cleavage – biochemical, fluorescence, single-stranded RNA substrate, uHTS hits, dose response (AID 588481); type: functional
[9] = molecular target: T6, Tyrosine-protein phosphatase non-receptor type 7 (Homo sapiens, UniProt P35236); experiment: redox-active compounds inhibiting HePTP phosphatase – biochemical, fluorescence, mechanism study (AID 2068); type: functional
T6 sequence (P35236 whole entry): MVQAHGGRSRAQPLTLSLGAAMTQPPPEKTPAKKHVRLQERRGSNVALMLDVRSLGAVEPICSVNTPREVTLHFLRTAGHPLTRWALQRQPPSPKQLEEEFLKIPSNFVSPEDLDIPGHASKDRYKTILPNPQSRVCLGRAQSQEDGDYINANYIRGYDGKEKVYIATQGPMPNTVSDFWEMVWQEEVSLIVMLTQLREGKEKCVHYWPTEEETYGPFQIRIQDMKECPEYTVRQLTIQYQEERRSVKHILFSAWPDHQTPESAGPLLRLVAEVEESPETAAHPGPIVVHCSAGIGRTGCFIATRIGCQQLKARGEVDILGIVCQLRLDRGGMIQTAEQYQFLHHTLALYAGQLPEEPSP

[10] = molecular target: T7, Tyrosine-protein phosphatase non-receptor type 22 (Homo sapiens, UniProt Q9Y2R2); experiment: inhibition of lymphoid tyrosine phosphatase LYP – biochemical, pCAP fluorogenic substrate, fluorescence, set 3, SAR follow-up (AID 449727); type: functional
T7 sequence (Q9Y2R2 whole entry): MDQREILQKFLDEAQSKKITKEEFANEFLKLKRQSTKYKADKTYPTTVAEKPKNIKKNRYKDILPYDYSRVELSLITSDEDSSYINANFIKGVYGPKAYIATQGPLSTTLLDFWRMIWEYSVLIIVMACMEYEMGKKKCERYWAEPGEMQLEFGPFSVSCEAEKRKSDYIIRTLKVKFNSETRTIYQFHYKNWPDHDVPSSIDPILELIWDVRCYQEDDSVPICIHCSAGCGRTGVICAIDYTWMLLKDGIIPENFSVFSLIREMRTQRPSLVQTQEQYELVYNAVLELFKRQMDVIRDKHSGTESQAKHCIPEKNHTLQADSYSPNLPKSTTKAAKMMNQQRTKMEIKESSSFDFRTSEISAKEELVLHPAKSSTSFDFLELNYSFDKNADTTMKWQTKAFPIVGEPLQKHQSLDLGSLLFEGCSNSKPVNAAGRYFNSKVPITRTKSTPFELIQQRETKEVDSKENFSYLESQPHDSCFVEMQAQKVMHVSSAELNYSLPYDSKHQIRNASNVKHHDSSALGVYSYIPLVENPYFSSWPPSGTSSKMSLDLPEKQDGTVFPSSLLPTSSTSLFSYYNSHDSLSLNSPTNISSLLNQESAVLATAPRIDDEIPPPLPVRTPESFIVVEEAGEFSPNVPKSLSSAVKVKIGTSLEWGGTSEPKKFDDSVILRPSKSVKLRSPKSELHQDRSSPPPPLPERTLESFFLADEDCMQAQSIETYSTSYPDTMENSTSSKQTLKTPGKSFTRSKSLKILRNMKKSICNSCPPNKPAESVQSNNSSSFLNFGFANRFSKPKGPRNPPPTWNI

[11] = molecular target: T7, Tyrosine-protein phosphatase non-receptor type 22; experiment: SAR LYP1 Fluorescent Assay using OMFP substrate for In Vitro dose response studies - Set 3. [Related pubchem assays (depositor defined):AID1779, AID1784, AID2140, AID2686]; type: functional
[12] = molecular target: T6, Tyrosine-protein phosphatase non-receptor type 7; experiment: inhibition of hematopoietic tyrosine phosphatase HePTP – biochemical, set 2, SAR follow-up (AID 449736); type: functional
[13] = molecular target: Tyrosine-protein phosphatase non-receptor type 12 (Homo sapiens, UniProt Q05209); experiment: SAR Selectivity Analysis of small molecule inhibitors of PEST using pCAP in a fluorescence assay. [Related pubchem assays (depositor defined):AID1779, AID1784, AID2135]; type: functional
Chain of Tyrosine-protein phosphatase non-receptor type 12 (Q05209 whole entry): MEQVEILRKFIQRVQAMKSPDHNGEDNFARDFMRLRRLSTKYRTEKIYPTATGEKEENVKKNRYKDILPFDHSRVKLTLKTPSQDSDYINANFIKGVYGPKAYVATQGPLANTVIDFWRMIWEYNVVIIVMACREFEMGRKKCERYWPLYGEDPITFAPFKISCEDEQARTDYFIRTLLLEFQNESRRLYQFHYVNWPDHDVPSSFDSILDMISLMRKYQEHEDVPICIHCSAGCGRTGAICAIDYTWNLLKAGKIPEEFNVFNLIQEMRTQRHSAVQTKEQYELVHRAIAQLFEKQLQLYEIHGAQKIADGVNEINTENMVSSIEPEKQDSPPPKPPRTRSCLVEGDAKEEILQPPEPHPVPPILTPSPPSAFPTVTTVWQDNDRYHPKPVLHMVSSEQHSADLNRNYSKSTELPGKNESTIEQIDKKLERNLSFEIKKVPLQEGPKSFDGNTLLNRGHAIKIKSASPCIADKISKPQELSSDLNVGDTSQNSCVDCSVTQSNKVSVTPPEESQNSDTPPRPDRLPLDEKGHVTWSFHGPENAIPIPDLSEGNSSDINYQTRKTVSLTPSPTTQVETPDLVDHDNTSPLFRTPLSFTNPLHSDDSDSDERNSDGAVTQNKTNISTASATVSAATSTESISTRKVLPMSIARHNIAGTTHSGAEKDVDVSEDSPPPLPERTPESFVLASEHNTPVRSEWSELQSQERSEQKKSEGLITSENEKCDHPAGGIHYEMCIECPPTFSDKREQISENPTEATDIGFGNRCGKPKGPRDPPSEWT

[14] = molecular target: T8, Dual specificity protein phosphatase 6 (Rattus norvegicus, UniProt Q64346); type: functional;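 note: confirmatory in vitro dose-response testing of MKP-3 inhibition; recombinant His-tagged MKP-3 made in E. coli BL21 with OMFP substrate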
T8 sequence (Q64346 whole entry): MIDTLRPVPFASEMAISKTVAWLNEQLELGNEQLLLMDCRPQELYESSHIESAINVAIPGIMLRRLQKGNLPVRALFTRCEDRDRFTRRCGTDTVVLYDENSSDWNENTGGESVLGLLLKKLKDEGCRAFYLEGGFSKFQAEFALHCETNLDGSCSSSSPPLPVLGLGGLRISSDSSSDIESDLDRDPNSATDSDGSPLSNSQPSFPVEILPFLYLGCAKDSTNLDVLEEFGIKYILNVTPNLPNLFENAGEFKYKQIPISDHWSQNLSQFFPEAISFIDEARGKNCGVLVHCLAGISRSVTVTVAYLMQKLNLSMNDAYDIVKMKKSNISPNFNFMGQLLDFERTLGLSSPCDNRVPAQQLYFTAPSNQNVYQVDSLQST

[15] = molecular target: Dual specificity protein phosphatase 3 (Homo sapiens, UniProt P51452); experiment: SAR VHR1 Fluorescent Assay for In Vitro dose response studies Set 2. [Related pubchem assays (depositor defined):AID1654, AID1661, AID1878]; type: functional
Chain of Dual specificity protein phosphatase 3 (P51452 whole entry): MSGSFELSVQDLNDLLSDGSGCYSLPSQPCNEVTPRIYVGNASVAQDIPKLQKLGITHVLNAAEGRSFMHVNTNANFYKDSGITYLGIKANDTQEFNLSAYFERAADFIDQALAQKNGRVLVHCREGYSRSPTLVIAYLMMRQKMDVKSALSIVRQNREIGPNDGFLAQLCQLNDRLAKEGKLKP

SMILES: COC(=O)Cn1c2ccc(F)cc2c2nc(C)sc21
- EC50 [1]: 8.1 µM (active)
- EC50 [2]: 8.74 µM (active)

SMILES: C=CCSc1nc(=O)c(CC)c(O)n1C(C)CC (stereo not given)
- EC50 [3]: > 100 µM (inactive)

SMILES: C=CCn1c(SCC(=O)c2ccc(O)c(O)c2)nnc1-c1ccc(Cl)cc1
- IC50 [4]: 11.8 µM (active)
- IC50 [5]: > 100 µM (inactive)

SMILES: O=[N+]([O-])c1ccc(NN=Cc2cccc3ccccc23)nc1
- EC50 [6]: 26.6 µM (inactive)
- EC50 [7]: 45.4 µM (inactive)
- EC50 [8]: > 99 µM (inactive)

SMILES: CCOc1cc(/C=C2/S/C(=N/c3ccc4ccccc4c3)NC2=O)cc(Cl)c1OCC(=O)O
- IC50 [9]: 373 nM (active)
- IC50 [10]: 12.3 µM (active)
- IC50 [11]: 15.6 µM (active)
- IC50 [12]: 466 nM (active)
- IC50 [13]: 4.76 µM (active)
- IC50 [14]: 26.5 µM (active)
- IC50 [15]: 480 nM (active)
